Data: patent US9670242B2, “Tetracyclic anthraquinone derivatives” (Tianjin Hemay Bio-Tech Co., Ltd, priority 2012, dated 2017)

How the values were obtained:
Format in all cases: cell-based, human
BxPc-3 cells = experiment: BxPc-3 cell growth inhibition test (MTT assay); conditions: growth inhibition at 2000 nM, 70 h
Procedure: BxPc-3 Cell Growth Inhibition Test (MTT Assay)
Cell strains: BxPC-3 (human pancreatic cancer cell strains); MTT; antitumor compounds; DMSO.
(§1) II. Reagents and Consumable Materials
(§2) Culture medium: 90% RPMI-1640+10% FBS; Pancreatin (0.25% (w/v) solution was formulated with PBS, 0.53 mM of EDTA was added in the formulation); PBS; 96-well culture plate.
(§3) 1. A plate (10 cm) of cells in logarithmic growth phase that were normally cultured was collected;
(§4) 2. The culture solution was sucked out. The plate was washed with 5 mL of PBS once or twice;
(§5) 3. PBS was sucked out. 1.5 mL of 0.25% pancreatin was added to infiltrate the cells;
4. The culture plate was placed in an incubator. Digestion was carried out for about 8 min at 37° C.;
(§6) 5. 4.5 mL of complete culture solution was added to the culture plate to stop the digestion. The cells were carefully scoured with micropipette (1 ml) to give a uniform cell suspension. The suspension was implanted into a 96-well cell culture disc by 5000 cells/100 μL per well. The culture plate was incubated overnight under 5% CO2 at 37° C. In day 2, 100 μL of culture solution comprising a compound was added in each well. The plate was further incubated for 70 h under 5% CO2 at 37° C.;
(§7) 6. The culture solution was sucked out;
(§8) 7. 100 μL of serum-free culture solution containing 0.5 mg/mL MTT was added in each well. The plate was incubated for 3 h;
(§9) 8. The culture solution was carefully sucked out;
(§10) 9. 100 μL of DMSO was added into each well and vibrated to dissolve;
(§11) 10. OD values were determined at 490 nM.
(§12) IV. Results and Treatments
(§13) 1. Calculation of Relative Inhibition Ratio The inhibition ratio of a compound on cell growth=(PC−n)/(PC−NC)×100%
(§14) PC: OD values of cells after normal growth in control wells without a compound;
(§15) n: OD values of cells after growth in test wells with a compound;
(§16) NC: Background OD values of blank wells without a compound and cells.

NCI-H446 cells = experiment: NCI-H446 cell growth inhibition test (MTT assay); conditions: growth inhibition at 222 nM, 70 h
Procedure: NCI-H446 Cell Growth Inhibition Test (MTT Assay)
Cell strains: NCI-H446 (human small cell lung cancer cell strains); MTT; antitumor compounds; DMSO.
as §1, §2, §3, §4, §5
4. The culture plate was placed in an incubator. Digestion was carried out for about 3 min at 37° C.;
as §6, with “3” for “4.5”, “4000” for “5000”
as §7, §8, §9, §10, §11, §12, §13, §14, §15, §16

22Rv1 cells = experiment: 22Rv1 cell growth inhibition test (SRB assay); conditions: growth inhibition at 222 nM, 73 h
Procedure: 22Rv1 Cell Growth Inhibition Test (SRB Assay)
Cell strains: 22Rv1 (human prostate cancer cell strains); SRB: 0.4% (w/v) working solution was formulated with 1% glacial acetic acid, reserved at 4° C.; antitumor compounds; DMSO.
as §1, §2, §3, §4
(§17) 3. 1.5 mL of 0.25% pancreatin was added to the plate to infiltrate the cells;
(§18) 4. The pancreatin was sucked out. The culture plate was placed in an incubator. Digestion was carried out for about 3 min at 37° C.;
as §6, with “4” for “4.5”, “uniform single” for “uniform”, “plate” for “disc”, “7000” for “5000”, “73” for “70”
(§19) 6. The culture solution was sucked out. 100 uL of TCA fixed cells which were diluted to 10% were added to each well. The plate was kept in a refrigerator for 1 h at 4° C.
(§20) 7. TCA stationary liquid was sucked out. Each well was washed with 150 μL of ddH2O five times;
(§21) 8. After the stationary liquid was cleansed, the plate was dried in the air at the room temperature;
(§22) 9. 60 μL of SRB staining solution was added in each well. The well was stained for 15 min at the room temperature;
(§23) 10. The SRB staining solution was sucked out. Each well was washed with 150 μL of 1% glacial acetic acid five times;
(§24) 11. After the SRB staining solution was cleansed, the plate was dried in the air at the room temperature;
(§25) 12. 100 μL of 10 mM Tris was added in each well. The plate was vibrated to dissolve out SRB;
(§26) 13. OD values were determined at 570 nM.
as §12, §13, §14, §15, §16

MDA-MB-453 cells = experiment: MDA-MB-453 cell growth inhibition test (SRB assay); conditions: growth inhibition at 2000 nM, 69.5 h
Procedure: MDA-MB-453 Cell Growth Inhibition Test (SRB Assay)
Cell strains: MDA-MB-453 (human breast cancer cell strains); SRB: 0.4% (w/v) working solution was formulated with 1% glacial acetic acid, reserved at 4° C.; antitumor compounds; DMSO.
as §1
Culture medium: 90% L15+10% FBS; pancreatin (0.25% (w/v) solution was formulated with PBS, 0.53 mM of EDTA was added in the formulation); PBS; 96-well culture plate.
as §3, §4, §17, §18
as §6, with “4” for “4.5”, “uniform single” for “uniform”, “plate” for “disc”, “7000” for “5000”, “well.” for “well. The plate was further incubated for 70 h under 5% CO2 at 37° C.;”
The plate was further incubated for 69.5 h under 5% CO2 at 37° C.;
as §19, §20, §21, §22, §23, §24, §25, §26, §12, §13, §14, §15, §16

SK-OV-3 cells = experiment: SK-OV-3 cell growth inhibition test (MTT assay); conditions: growth inhibition at 667 nM, 69 h
Procedure: SK-OV-3 Cell Growth Inhibition Test (MTT Assay)
Cell strains: SK-OV-3 (human ovarian cancer cell strains); MTT; antitumor compounds; DMSO.
as §1
Culture medium: 90% McCoy's 5A+10% FBS; Pancreatin (0.25% (w/v) solution was formulated with PBS, 0.53 mM of EDTA was added in the formulation); PBS; 96-well culture plate.
as §3, §4, §5
4. The pancreatin was sucked out. The culture plate was placed in an incubator. Digestion was carried out for about 5 min at 37° C.;
as §6, with “4000” for “5000”, “69” for “70”
as §7, §8, §9
9. 100 μL of DMSO was added in each well and vibrated to dissolve;
as §11, §12, §13, §14, §15, §16

Structure (SMILES) | Inhibition Ratio (%) (BxPc-3 cells) | Inhibition Ratio (%) (NCI-H446 cells) | Inhibition Ratio (%) (22Rv1 cells) | Inhibition Ratio (%) (MDA-MB-453 cells) | Inhibition Ratio (%) (SK-OV-3 cells)
COc1cccc2c1C(=O)c1c(O)c3c(c(O)c1C2=O)CC(O)(C(=O)COC(=O)CCC(=O)NCCOCCOCCOCCO)CC3O[C@H]1C[C@H](n2cccc2)[C@H](O)[C@H](C)O1 (stereo partly drawn) [Example 1, 10-((3′-(pyrrol-1-yl)-2′,3′,6′-trideoxy-alphal-l-lyxo-hexylpyranyl)oxy)-7,8,9,10-tetrahydro-6,8,11-trihydroxy-13-oxo-14-(4-(2-(2-(2-(2-hydroxyethoxy)ethoxy)ethoxy)ethylamino)-4-oxo-butyrato)-1-methoxy-5,12-naphthalenedione] | 82.5% | 43.2% | 52.2% | 77.7% | 57.3%
COc1cccc2c1C(=O)c1c(O)c3c(c(O)c1C2=O)CC(O)(C(=O)COC(=O)CCCC(=O)Nc1ccc(CN2CCOCC2)cc1)CC3OC1CC(n2cccc2)C(O)C(C)O1 (stereo not shown) [Example 3] | 81.2% | 60.8% | 61.9% | 73.9% | 62.5%
COc1cccc2c1C(=O)c1c(O)c3c(c(O)c1C2=O)CC(O)(C(=O)COC(=O)CCC(=O)N1CCN(CCO)CC1)CC3OC1CC(n2cccc2)C(O)C(C)O1 (stereo not shown) [Example 8] | 82.6% | 59.5% | 56.8% | 75.3% | 60%
COc1cccc2c1C(=O)c1c(O)c3c(c(O)c1C2=O)CC(O)(C(=O)COC(=O)CCC(=O)NN1CCOCC1)CC3OC1CC(n2cccc2)C(O)C(C)O1 (stereo not shown) [Example 10] | 85% | 61.1% | 62.7% | 78.5% | 71.5%
COc1cccc2c1C(=O)c1c(O)c3c(c(O)c1C2=O)CC(O)(C(=O)COC(=O)CCC(=O)NCCCN1CCOCC1)CC3OC1CC(n2cccc2)C(O)C(C)O1 (stereo not shown) [Example 12] | 74.9% | 54.6% | 53.3% | 73.7% | 48.8%
COc1cccc2c1C(=O)c1c(O)c3c(c(O)c1C2=O)CC(O)(C(=O)COC(=O)CCC(=O)NN1CCN(C)CC1)CC3OC1CC(n2cccc2)C(O)C(C)O1 (stereo not shown) [Example 14] | 81.8% | – | 52.1% | 74.4% | 53.6%
COc1cccc2c1C(=O)c1c(O)c3c(c(O)c1C2=O)CC(O)(C(=O)COC(=O)CCC(=O)NCCCN1CCCC1)CC3OC1CC(n2cccc2)C(O)C(C)O1 (stereo not shown) [Example 18] | 70.7% | – | – | – | 47.4%
COc1cccc2c1C(=O)c1c(O)c3c(c(O)c1C2=O)CC(O)(C(=O)COC(=O)CCC(=O)Nc1ccc(N2CCOCC2)nc1)CC3OC1CC(n2cccc2)C(O)C(C)O1 (stereo not shown) [Example 20] | 84.1% | 68% | 60.9% | 82.4% | 62.6%
COc1cccc2c1C(=O)c1c(O)c3c(c(O)c1C2=O)CC(O)(C(=O)COC(=O)CCC(=O)Nc1ccncc1)CC3OC1CC(n2cccc2)C(O)C(C)O1 (stereo not shown) [Example 22] | 82% | 62.1% | 56.3% | 71.1% | 60.3%
COc1cccc2c1C(=O)c1c(O)c3c(c(O)c1C2=O)CC(O)(C(=O)COC(=O)CCC(=O)Nc1cccnc1)CC3OC1CC(n2cccc2)C(O)C(C)O1 (stereo not shown) [Example 24] | 84.7% | 61.8% | 63.6% | 79.8% | 61.4%
COc1cccc2c1C(=O)c1c(O)c3c(c(O)c1C2=O)CC(O)(C(=O)COC(=O)CCC(=O)NCc1ccncc1)CC3OC1CC(n2cccc2)C(O)C(C)O1 (stereo not shown) [Example 26] | 82.7% | 66.9% | 60.8% | 79.9% | 67.6%
COc1cccc2c1C(=O)c1c(O)c3c(c(O)c1C2=O)CC(O)(C(=O)COC(=O)CCC(=O)NCc1cccnc1)CC3OC1CC(n2cccc2)C(O)C(C)O1 (stereo not shown) [Example 28] | 84.7% | 65.8% | 63.1% | 81.9% | 66.2%
COc1cccc2c1C(=O)c1c(O)c3c(c(O)c1C2=O)CC(O)(C(=O)COC(=O)CCC(=O)NCc1ccccn1)CC3OC1CC(n2cccc2)C(O)C(C)O1 (stereo not shown) [Example 30] | 85.2% | 61% | 62.3% | 79.9% | 59.9%
COc1cccc2c1C(=O)c1c(O)c3c(c(O)c1C2=O)CC(O)(C(=O)COC(=O)CCC(=O)NCCc1ccncc1)CC3OC1CC(n2cccc2)C(O)C(C)O1 (stereo not shown) [Example 32] | 83.4% | 59.3% | 61.7% | 78.3% | 59.7%
COc1cccc2c1C(=O)c1c(O)c3c(c(O)c1C2=O)CC(O)(C(=O)COC(=O)CCC(=O)NS(=O)(=O)c1ccccc1)CC3OC1CC(n2cccc2)C(O)C(C)O1 (stereo not shown) [Example 95] | 80.6% | – | 51.3% | 68.2% | 66.3%
